In PMC11393638 (Regulatory toxicology and pharmacology : RTP, 2023):
Like-named read-outs stand apart in the source and are kept apart here. Marks after values point to notes of the source that are not given here.

Columns and labels:
TA98 = conditions: for BMD50L / BMD50U: CES 0.5
TA1537 = conditions: 0–200 μg/plate
WP2 uvrA (pKM101) = conditions: 0–200 μg/plate
[1] = system: tester strains TA98 or TA100; conditions: 1 mg/plate; Aroclor 1254-induced rat liver S9; ref Zhang et al., 1983; cited from earlier work
TK6 cells [2] = assay: In vitro micronucleus assay in TK6 cells
HepG2 cells = conditions: 24 h without exogenous metabolism, additional 16 h
[3] = system: CYP2C19-expressing TK6 cells; conditions: 4- and 24-h exposures
[4] = system: TK6 cells transduced with CYP2C19; conditions: 24 h without exogenous metabolism
TK6 cells [5] = assay: In vitro MultiFlow DNA damage assay in TK6 cells
[6] = system: CYP2C19-expressing HepG2 cells; conditions: 24 h without exogenous metabolism, additional 16 h
[7] = system: hepatocytes of Sprague-Dawley rats; conditions: single dose of 1000 mg/kg; ref Martelli et al., 1994; cited from earlier work
[8] = system: tester strains TA1535, TA1537, TA1538, TA92, TA98, and TA100; conditions: maximum concentration 1.4 μmol/plate (404 μg/plate); with and without Aroclor 1254-induced rat liver S9; ref Raisfeld-Danse and Chen, 1983; cited from earlier work
3D HepaRG spheroids = conditions: 24 h; 3D cultures
tester strains = conditions: preliminary study; these concentrations and above
TA100 = conditions: for BMD50L / BMD50U: CES 0.5
TA1535 = conditions: for BMD50L / BMD50U: CES 0.5
primary rat hepatocytes = conditions: 10 μM to 100 μM; 20-h exposure; ref Robbiano et al., 1991; cited from earlier work
[9] = system: CYP2C19-expressing TK6 cells; assay: TK and HPRT gene mutation assays in CYP2C19-expressing TK6 cells; type: cell-based, human; conditions: 4-h treatment, no S9
[10] = system: TK6 cells transduced with CYP3A4; conditions: up to 10 μM; 24 h
[11] = system: TK6 cells transduced with CYP2E1; conditions: up to 10 μM; 24 h
[12] = system: TK6 cells transduced with CYP2A6; conditions: up to 10 μM; 24 h
TK6 cells [13] = assay: TK and HPRT gene mutation assays in TK6 cells with hamster liver S9; conditions: for HPRT gene MF / TK gene MF: 4-h treatment, TK6 cells with 1% hamster liver S9
[14] = system: TK6 cells transduced with CYP2D6; conditions: up to 10 μM; 24 h
2D HepaRG cells = conditions: 24 h; 2D cultures
[15] = system: TK6 cells transduced with CYP2C8; conditions: up to 10 μM; 24 h
[16] = TA98, 10% hamster liver S9, preincubation 30 min
[17] = TA98, 10% hamster liver S9, preincubation 60 min
[18] = TA98, 10% rat liver S9, preincubation 30 min
[19] = TA98, 10% rat liver S9, preincubation 60 min
[20] = TA98, 30% hamster liver S9, preincubation 30 min
[21] = TA98, 30% hamster liver S9, preincubation 60 min
[22] = TA98, 30% rat liver S9, preincubation 30 min
[23] = TA98, 30% rat liver S9, preincubation 60 min
[24] = TA98, without S9, preincubation 30 min
[25] = TA98, without S9, preincubation 60 min
[26] = 0–200 μg/plate, S9 activation required
[27] = 10% hamster liver S9, preincubation 30 min
[28] = 10% hamster liver S9, preincubation 60 min
[29] = 10% rat liver S9, preincubation 30 min
[30] = 10% rat liver S9, preincubation 60 min
[31] = 30% hamster liver S9, preincubation 30 min
[32] = 30% hamster liver S9, preincubation 60 min
[33] = 30% rat liver S9, preincubation 30 min
[34] = 30% rat liver S9, preincubation 60 min
[35] = without S9, preincubation 30 min
[36] = without S9, preincubation 60 min

CC(C)N(CC(O)COc1cccc2ccccc12)N=O (stereo not shown) [NNP, N-nitroso propranolol]
Mutagenic response in the Ames test (overall) (TA98; TA98, 0–200 μg/plate, preincubation method): mutagenic both in the presence and absence of S9 | BMD50L (TA98; [16]): 5.7 μg/plate | BMD50U (TA98; [16]): 10.1 μg/plate | BMD50L (TA98; [17]): 6.9 μg/plate | BMD50U (TA98; [17]): 14.5 μg/plate | BMD50L (TA98; [18]): 7.9 μg/plate | BMD50U (TA98; [18]): 13.0 μg/plate | BMD50L (TA98; [19]): 7.2 μg/plate | BMD50U (TA98; [19]): 11.5 μg/plate | BMD50L (TA98; [20]): 12.8 μg/plate | BMD50U (TA98; [20]): 21.4 μg/plate | BMD50L (TA98; [21]): 18.3 μg/plate | BMD50U (TA98; [21]): 30.3 μg/plate | BMD50L (TA98; [22]): 16.2 μg/plate | BMD50U (TA98; [22]): 27.0 μg/plate | BMD50L (TA98; [23]): 22.4 μg/plate | BMD50U (TA98; [23]): 36.8 μg/plate | BMD50L (TA98; [24]): 9.8 μg/plate | BMD50U (TA98; [24]): 24.7 μg/plate | BMD50L (TA98; [25]): 9.3 μg/plate | BMD50U (TA98; [25]): 15.4 μg/plate | Solvent effect on mutagenicity in TA98 (TA98; dissolved in acetone, methanol, or DMSO): very similar mutational responses | Mutagenic response in the Ames test (overall) (TA1537): negative | Mutagenic response in the Ames test (overall) (WP2 uvrA (pKM101)): negative | Mutations in the Ames test [1]: did not induce mutations | %MN frequency with hamster liver S9 (TK6 cells [2]; 4-h (2% S9) and 24-h (0.4% S9) treatments): concentration-dependent increase | Cytotoxicity after metabolic activation by hamster liver S9 (TK6 cells [2]; 4-h and 24-h treatments): displayed cytotoxicity | Effect on %MN and cytotoxicity (TK6 cells [2]; non-CYP-transduced TK6 cells, up to 10 μM, 24 h): no effect | MN formation over vehicle controls (TK6 cells [2]; without exogenous metabolism, up to 100 μM, 24 h): did not result in any increase in MN formation | Cytotoxicity or MN formation (HepG2 cells): did not cause any cytotoxicity or MN formation | Nuclear P53 [3]: only caused increases in nuclear P53 after 24 h | Lowest concentration causing a statistically significant increase in %MN [4]: 0.0625 µM | γH2A.X (TK6 cells [5]; 4-h treatment with 2% hamster S9): concentration-dependent increase | γH2A.X (TK6 cells [5]; 24-h treatment with 0.4% hamster S9, 10 μM (highest concentration, cytotoxic)): level decreased | γH2A.X (TK6 cells [5]; 24-h treatment with 0.4% hamster S9, 2.5 and 5.0 μM): induced increases | Phosphorylation of histone H3 (aneugen marker) (TK6 cells [5]; data not shown): did not increase | γH2A.X fluorescence (TK6 cells [5]; without S9): did not induce any increase | γH2A.X compared to the vehicle control (TK6 cells [5]; without S9, 100 μM): statistically significant decrease | %MN [6]: concentration-dependent increase | Lowest observed adverse effect level (LOAEL) for %MN [6]: 2 µM | Micronucleus (MN) formation in hepatocytes [7]: induced micronucleus (MN) formation | Mutagenicity in the Ames test [8]: negative | Lowest concentration that induced positive responses (Comet) (3D HepaRG spheroids): 25 µM | Concentrations with considerable toxicity in the Ames test (tester strains): 100–500 μg/plate | Mutagenic response in the Ames test (overall) (TA100; [26]): positive mutagenic responses | BMD50L (TA100; [27]): 5.9 μg/plate | BMD50U (TA100; [27]): 21.1 μg/plate | BMD50L (TA100; [28]): 14.1 μg/plate | BMD50U (TA100; [28]): 34.4 μg/plate | BMD50L (TA100; [29]): Negative | BMD50L (TA100; [30]): Negative | BMD50L (TA100; [31]): 7.3 μg/plate | BMD50U (TA100; [31]): 19.9 μg/plate | BMD50L (TA100; [32]): 24.7 μg/plate | BMD50U (TA100; [32]): 62.2 μg/plate | BMD50L (TA100; [33]): Negative | BMD50L (TA100; [34]): Negative | BMD50L (TA100; [35]): Negative | BMD50L (TA100; [36]): Negative | Mutagenic response in the Ames test (overall) (TA1535; [26]): positive mutagenic responses | BMD50L (TA1535; [27]): 0.9 μg/plate | BMD50U (TA1535; [27]): 3.4 μg/plate | BMD50L (TA1535; [28]): 2.1 μg/plate | BMD50U (TA1535; [28]): 6.5 μg/plate | BMD50L (TA1535; [29]): 36.1 μg/plate | BMD50U (TA1535; [29]): 108.0 μg/plate | BMD50L (TA1535; [30]): Negative | BMD50L (TA1535; [31]): 2.3 μg/plate | BMD50U (TA1535; [31]): 7.7 μg/plate | BMD50L (TA1535; [32]): 2.5 μg/plate | BMD50U (TA1535; [32]): 7.1 μg/plate | BMD50L (TA1535; [33]): Negative | BMD50L (TA1535; [34]): Negative | BMD50L (TA1535; [35]): Negative | BMD50L (TA1535; [36]): Negative | DNA fragmentation and unscheduled DNA synthesis (UDS) (primary rat hepatocytes): concentration-dependent increase | HPRT gene MF ([9]; 0.0625 μM): 4.5^c × 10^−6 | TK gene MF ([9]; 0.0625 μM): 13.2 × 10^−6 | HPRT gene MF ([9]; 0.125 μM): 6.5^c × 10^−6 | TK gene MF ([9]; 0.125 μM): 18.6^c × 10^−6 | HPRT gene MF ([9]; 0.5 μM): 23.0^c × 10^−6 | TK gene MF ([9]; 0.5 μM): 28.5^c × 10^−6 | Effect on %MN and cytotoxicity [10]: no effect | Effect on %MN and cytotoxicity [11]: no effect | Effect on %MN and cytotoxicity [12]: no effect | HPRT gene MF (TK6 cells [13]; 50 μM): 4.2^c × 10^−6 | TK gene MF (TK6 cells [13]; 50 μM): 15.5^c × 10^−6 | HPRT gene MF (TK6 cells [13]; 100 μM): 7.0^c × 10^−6 | TK gene MF (TK6 cells [13]; 100 μM): 21.8^c × 10^−6 | HPRT gene MF (TK6 cells [13]; 200 μM): 3.2^c × 10^−6 | TK gene MF (TK6 cells [13]; 200 μM): 17.8^c × 10^−6 | HPRT gene MF (TK6 cells [13]; 300 μM): 2.6^c × 10^−6 | TK gene MF (TK6 cells [13]; 300 μM): 16.5^c × 10^−6 | Concentrations producing overt cytotoxicity (TK6 cells [13]; preliminary concentration range-finding study, 1% hamster liver S9, 4 h): ≥ 400 µM | Effect on %MN and cytotoxicity [14]: no effect | Lowest concentration that induced positive responses (Comet) (2D HepaRG cells): 50 µM | Effect on %MN and cytotoxicity [15]: no effect
